Laboratory results from patent US12606548B2, “Fungicidal oxadiazoles” (FMC CORPORATION, priority 2019, dated 2026).
Marks after values point to notes of the source that are not given here.

Tests used:
Format in all cases: in vivo
Phakopsora pachyrhizi = experiment: Test A: test suspension sprayed on soybean seedlings, inoculated next day with Phakopsora pachyrhizi (Asian soybean rust), visual disease rating; settings: for Test A rating (% disease control): relative to the controls
Excerpt: General protocol for preparing test suspensions for Tests A-C: the test compounds were first dissolved in acetone in an amount equal to 3% of the final volume and then suspended at the desired concentration (in ppm) in acetone and purified water (50/50 mix by volume) containing 250 ppm of the surfactant PEG400 (polyhydric alcohol esters). The resulting test suspensions were then used in Tests A-C. The test suspension was sprayed to the point of run-off on soybean seedlings. The following day the seedlings were inoculated with a spore suspension of Phakopsora pachyrhizi (the causal agent of Asian soybean rust) and incubated in a saturated atmosphere at 22° C., for 24 h and then moved to a growth chamber at 22° C., for 8 days, after which time visual disease ratings were made. […] A dash (-) indicates the compound was not tested. The test suspensions were sprayed at the concentration listed in the column “Rate in ppm”, unless otherwise indicated.

Zymoseptoria tritici = experiment: Test B: test suspension sprayed on wheat seedlings, inoculated next day with Zymoseptoria tritici (wheat leaf blotch), visual disease rating; settings: for Test B rating (% disease control): relative to the controls
Excerpt: General protocol for preparing test suspensions for Tests A-C: the test compounds were first dissolved in acetone in an amount equal to 3% of the final volume and then suspended at the desired concentration (in ppm) in acetone and purified water (50/50 mix by volume) containing 250 ppm of the surfactant PEG400 (polyhydric alcohol esters). The resulting test suspensions were then used in Tests A-C.
The test suspension was sprayed to the point of run-off on wheat seedlings. The following day the seedlings were inoculated with a spore suspension of Zymoseptoria tritici (the causal agent of wheat leaf blotch) and incubated in a saturated atmosphere at 24° C., for 48 h, and then moved to a growth chamber at 20° C., for 17 days, after which time visual disease ratings were made.
Results for Tests A-C are given in Table A. In the Table, a rating of 100 indicates 100% disease control and a rating of 0 indicates no disease control (relative to the controls). A dash (-) indicates the compound was not tested. The test suspensions were sprayed at the concentration listed in the column “Rate in ppm”, unless otherwise indicated. An asterisk “*” next to the rating indicates a 250 ppm test suspension was used, a double asterisk “**” next to the rating indicates a 100 ppm test suspension was used, and a triple asterisk “***” next to the rating indicates a 50 ppm test suspension was used.

[1] = test system: Puccinia recondita f. sp. tritici; experiment: Test C: test suspension sprayed on wheat seedlings, inoculated next day with Puccinia recondita f. sp. tritici (wheat leaf rust), visual disease rating; settings: for Test C rating (% disease control): relative to the controls
Excerpt: General protocol for preparing test suspensions for Tests A-C: the test compounds were first dissolved in acetone in an amount equal to 3% of the final volume and then suspended at the desired concentration (in ppm) in acetone and purified water (50/50 mix by volume) containing 250 ppm of the surfactant PEG400 (polyhydric alcohol esters). The resulting test suspensions were then used in Tests A-C. The test suspension was sprayed to the point of run-off on wheat seedlings. The following day the seedlings were inoculated with a spore suspension of Puccinia recondita f. sp. tritici; (the causal agent of wheat leaf rust) and incubated in a saturated atmosphere at 20° C., for 24 h, and then moved to a growth chamber at 20° C., for 6 days, after which time visual disease ratings were made. […] A dash (-) indicates the compound was not tested. The test suspensions were sprayed at the concentration listed in the column “Rate in ppm”, unless otherwise indicated.

| Compound | Test A rating (% disease control) (Phakopsora pachyrhizi; Rate 10 ppm test suspension) | Test C rating (% disease control) ([1]; Rate 10 ppm test suspension) | further results |
| --- | --- | --- | --- |
| 1,3-dihydro-1-methyl-3-[[4-[5-(trifluoromethyl)-1,2,4-oxadiazol-3-yl]phenyl]methyl]-2H-benzimidazol-2-one [Compound 159] | – | – | Test A disease control rating (Phakopsora pachyrhizi; 250 ppm test suspension): 100%; Test B disease control rating (Zymoseptoria tritici; 250 ppm test suspension): 0%; Test C disease control rating ([1]; 250 ppm test suspension): 100% |
| 1-[[4-[5-(trifluoromethyl)-1,2,4-oxadiazol-3-yl]phenyl]methyl]-2(1H)-quinoxalinone [Compound 158] | – | – | Test A disease control rating (Phakopsora pachyrhizi; 250 ppm test suspension): 100%; Test B disease control rating (Zymoseptoria tritici; 250 ppm test suspension): 0%; Test C disease control rating ([1]; 250 ppm test suspension): 100% |
| 2-[[4-[5-(trifluoromethyl)-1,2,4-oxadiazol-3-yl]phenyl]methyl]-1H-isoindole-1,3(2H)-dione [Compound 90] | – | – | Test A disease control rating (Phakopsora pachyrhizi; 260 ppm test suspension): 100%; Test B disease control rating (Zymoseptoria tritici; 260 ppm test suspension): 100%; Test C disease control rating ([1]; 260 ppm test suspension): 100% |
| 4,5-dihydro-2-[[4-[5-(trifluoromethyl)-1,2,4-oxadiazol-3-yl]phenyl]methyl]-4-oxazolecarboxamide [Compound 75] | – | – | Test A disease control rating (Phakopsora pachyrhizi; 250 ppm test suspension): 100%; Test B disease control rating (Zymoseptoria tritici; 250 ppm test suspension): 98%; Test C disease control rating ([1]; 250 ppm test suspension): 100% |
| 4,5-dihydro-N,N-dimethyl-2-[[4-[5-(trifluoromethyl)-1,2,4-oxadiazol-3-yl]phenyl]methyl]-4-oxazolecarboxamide [Compound 178] | – | – | Test A disease control rating (Phakopsora pachyrhizi; 260 ppm test suspension): 100%; Test B disease control rating (Zymoseptoria tritici; 260 ppm test suspension): 93%; Test C disease control rating ([1]; 260 ppm test suspension): 100% |
| CCOC(=O)c1cnn(C(C)c2ccc(-c3noc(C(F)(F)F)n3)s2)c1 (racemic) [Compound 192] | – | – | Test A disease control rating (Phakopsora pachyrhizi; 10 ppm test suspension): 100%; Test B disease control rating (Zymoseptoria tritici; 250 ppm test suspension): 99* %; Test C disease control rating ([1]; 10 ppm test suspension): 100% |
| Cc1ccccc1C(O)c1ccc(-c2noc(C(F)(F)F)n2)cc1 (racemic) [Compound 497] | 100% | 0% | Test B rating (% disease control) (Zymoseptoria tritici; 250 ppm test suspension): 5* % |
| CN(C)C(=O)C1=NOC(C)(Cn2cc(-c3noc(C(F)(F)F)n3)cn2)C1 (racemic) [compound 306] | – | – | Test A disease control rating (Phakopsora pachyrhizi; 50 ppm test suspension): 0%; Test B disease control rating (Zymoseptoria tritici; 250 ppm test suspension): 10* %; Test C disease control rating ([1]; 50 ppm test suspension): 0% |
| OC(c1ccc(-c2noc(C(F)(F)F)n2)cc1)c1cccc(F)c1 (racemic) [compound 498] | 100% | 0% | Test B rating (% disease control) (Zymoseptoria tritici; 250 ppm test suspension): 43* % |
| OC(c1ccc(-c2noc(C(F)(F)F)n2)cc1)c1cccc(Cl)c1 (racemic) [compound 499] | – | – | Test A rating (% disease control) (Phakopsora pachyrhizi; Rate 250 ppm test suspension): 100%; Test B rating (% disease control) (Zymoseptoria tritici; 250 ppm test suspension): 48* %; Test C rating (% disease control) ([1]; Rate 250 ppm test suspension): 100% |
| OC(c1ccc(F)cc1)c1ccc(-c2noc(C(F)(F)F)n2)cc1 (racemic) [compound 500] | – | – | Test A rating (% disease control) (Phakopsora pachyrhizi; Rate 250 ppm test suspension): 100%; Test B rating (% disease control) (Zymoseptoria tritici; 250 ppm test suspension): 5* %; Test C rating (% disease control) ([1]; Rate 250 ppm test suspension): 100% |
| COC(=O)c1coc(COc2ccc(-c3noc(C(F)(F)F)n3)cc2)n1 [Compound 403, methyl 2-[[4-[5-(trifluoromethyl)-1,2,4-oxadiazol-3-yl]-phenoxy]methyl]oxazole-4-carboxylate] | 60% | 0% | Test B rating (% disease control) (Zymoseptoria tritici; 250 ppm test suspension): 47* % |
| CCOC(=O)c1cccc(Cc2ccc(-c3noc(C(F)(F)F)n3)cc2)c1 [Compound 454] | 100% | 0% | Test B rating (% disease control) (Zymoseptoria tritici; 250 ppm test suspension): 47* % |
| COC(=O)c1csc(Cc2ccc(-c3noc(C(F)(F)F)n3)cc2)c1 [Compound 455] | 100% | 0% | Test B rating (% disease control) (Zymoseptoria tritici; 250 ppm test suspension): 66* % |
| CC(=O)Nc1cnn(Cc2ccc(-c3noc(C(F)(F)F)n3)cc2)c1 [compound 441] | 87% | 9% | – |
| CS(=O)(=O)Nc1cnn(Cc2ccc(-c3noc(C(F)(F)F)n3)cc2)c1 [compound 442] | 44% | 0% | – |
| CCOC(=O)Nc1cnn(Cc2ccc(-c3noc(C(F)(F)F)n3)cc2)c1 [compound 443] | 100% | 74% | – |
| FC(F)(F)c1nc(-c2ccc(Cn3ncc4c(I)ccnc43)cc2)no1 [compound 444] | 96% | 86% | – |
| FC(F)(F)c1nc(-c2ccc(Cn3cc4c(I)ccnc4n3)cc2)no1 [compound 445] | 100% | 99% | – |
| Nc1nn(Cc2ccc(-c3noc(C(F)(F)F)n3)cc2)c2ncccc12 [compound 446] | 99% | 86% | – |

| Compound | Test A rating (% disease control) (Phakopsora pachyrhizi; Rate 10 ppm test suspension) | Test C rating (% disease control) ([1]; Rate 10 ppm test suspension) | further results |
| --- | --- | --- | --- |
| CCCCCOC(=O)c1cnn(Cc2ccc(-c3noc(C(F)(F)F)n3)cc2)c1 [compound 447] | 100% | 100% | – |
| O=C(OCCCCl)c1cnn(Cc2ccc(-c3noc(C(F)(F)F)n3)cc2)c1 [compound 448] | 100% | 100% | – |
| O=C(NCC(F)(F)F)c1cnn(Cc2ccc(-c3noc(C(F)(F)F)n3)cc2)c1 [compound 449] | 100% | 100% | – |
| CCOC(=O)c1cnn(Cc2ccc3cc(-c4noc(C(F)(F)F)n4)ccc3c2)c1 [compound 457] | – | – | Test A rating (% disease control) (Phakopsora pachyrhizi; Rate 50 ppm test suspension): 77%; Test C rating (% disease control) ([1]; Rate 50 ppm test suspension): 0% |
| O=C1N(Cc2ccc(-c3noc(C(F)(F)F)n3)cc2)CCc2cncn21 [compound 462] | 100% | 89% | – |
| COCCCOC(=O)c1cnn(Cc2ccc(-c3noc(C(F)(F)F)n3)cc2)c1 [compound 474] | 100% | 100% | – |
| O=C(OCCN1CCOCC1)c1cnn(Cc2ccc(-c3noc(C(F)(F)F)n3)cc2)c1 [compound 475] | 100% | 91% | – |
| CCOC(=O)COC(=O)c1cnn(Cc2ccc(-c3noc(C(F)(F)F)n3)cc2)c1 [compound 476] | 100% | 86% | – |
| O=C(OCCCl)c1cnn(Cc2ccc(-c3noc(C(F)(F)F)n3)cc2)c1 [compound 477] | 100% | 100% | – |
| O=C(OCCBr)c1cnn(Cc2ccc(-c3noc(C(F)(F)F)n3)cc2)c1 [compound 478] | – | – | Test A rating (% disease control) (Phakopsora pachyrhizi; Rate 50 ppm test suspension): 81%; Test C rating (% disease control) ([1]; Rate 50 ppm test suspension): 19% |
| O=C(OCc1ccccn1)c1cnn(Cc2ccc(-c3noc(C(F)(F)F)n3)cc2)c1 [compound 479] | 100% | 100% | – |
| CC(C)CCOC(=O)c1cnn(Cc2ccc(-c3noc(C(F)(F)F)n3)cc2)c1 [compound 480] | 100% | 98% | – |
| CCC(C)OC(=O)c1cnn(Cc2ccc(-c3noc(C(F)(F)F)n3)cc2)c1 (centres unmarked) [compound 481] | 100% | 100% | – |
| C=C(Cl)COC(=O)c1cnn(Cc2ccc(-c3noc(C(F)(F)F)n3)cc2)c1 [compound 482] | 100% | 100% | – |
| O=C(NCc1cccnc1)c1cnn(Cc2ccc(-c3noc(C(F)(F)F)n3)cc2)c1 [compound 483] | 100% | 54% | – |
| O=C(NCc1ccccc1)c1cnn(Cc2ccc(-c3noc(C(F)(F)F)n3)cc2)c1 [compound 484] | 100% | 100% | – |
| O=C(Nc1ccccc1)c1cnn(Cc2ccc(-c3noc(C(F)(F)F)n3)cc2)c1 [compound 485] | 100% | 99% | – |
| C=C(C#N)COC(=O)c1cnn(Cc2ccc(-c3noc(C(F)(F)F)n3)cc2)c1 [compound 486] | 100% | 89% | – |
| Cc1ccc(C(O)c2ccc(-c3noc(C(F)(F)F)n3)cc2)cc1 (centres unmarked) [compound 501] | 100% | 0% | – |
